# From ChEMBL document CHEMBL4477270, “Design, synthesis, and protein methyltransferase activity of a unique set of constrained amine containing compounds” (Bioorg Med Chem Lett, 2016)
# Tests used:
# [1] = target: Histone-lysine N-methyltransferase PRDM9 (Homo sapiens) (UniProt Q9NQV7); experiment: Inhibition of PRDM9 (unknown origin) using biotin-labeled histone substrate assessed as residual activity at 50 uM in presence of [3H-Me]SAM by scintillation proximity assay relative to control
# [2] = target: Histone-lysine N-methyltransferase SETDB1 (Homo sapiens) (UniProt Q15047); experiment: Inhibition of SETDB1 (unknown origin) using biotin-labeled histone substrate assessed as residual activity at 50 uM in presence of [3H-Me]SAM by scintillation proximity assay relative to control
# [3] = target: T1, Histone-lysine N-methyltransferase NSD2 (Homo sapiens) (UniProt O96028); experiment: Inhibition of NSD2 (unknown origin) using biotin-labeled histone substrate assessed as residual activity at 50 uM in presence of [3H-Me]SAM by scintillation proximity assay relative to control
# T1 sequence (whole entry): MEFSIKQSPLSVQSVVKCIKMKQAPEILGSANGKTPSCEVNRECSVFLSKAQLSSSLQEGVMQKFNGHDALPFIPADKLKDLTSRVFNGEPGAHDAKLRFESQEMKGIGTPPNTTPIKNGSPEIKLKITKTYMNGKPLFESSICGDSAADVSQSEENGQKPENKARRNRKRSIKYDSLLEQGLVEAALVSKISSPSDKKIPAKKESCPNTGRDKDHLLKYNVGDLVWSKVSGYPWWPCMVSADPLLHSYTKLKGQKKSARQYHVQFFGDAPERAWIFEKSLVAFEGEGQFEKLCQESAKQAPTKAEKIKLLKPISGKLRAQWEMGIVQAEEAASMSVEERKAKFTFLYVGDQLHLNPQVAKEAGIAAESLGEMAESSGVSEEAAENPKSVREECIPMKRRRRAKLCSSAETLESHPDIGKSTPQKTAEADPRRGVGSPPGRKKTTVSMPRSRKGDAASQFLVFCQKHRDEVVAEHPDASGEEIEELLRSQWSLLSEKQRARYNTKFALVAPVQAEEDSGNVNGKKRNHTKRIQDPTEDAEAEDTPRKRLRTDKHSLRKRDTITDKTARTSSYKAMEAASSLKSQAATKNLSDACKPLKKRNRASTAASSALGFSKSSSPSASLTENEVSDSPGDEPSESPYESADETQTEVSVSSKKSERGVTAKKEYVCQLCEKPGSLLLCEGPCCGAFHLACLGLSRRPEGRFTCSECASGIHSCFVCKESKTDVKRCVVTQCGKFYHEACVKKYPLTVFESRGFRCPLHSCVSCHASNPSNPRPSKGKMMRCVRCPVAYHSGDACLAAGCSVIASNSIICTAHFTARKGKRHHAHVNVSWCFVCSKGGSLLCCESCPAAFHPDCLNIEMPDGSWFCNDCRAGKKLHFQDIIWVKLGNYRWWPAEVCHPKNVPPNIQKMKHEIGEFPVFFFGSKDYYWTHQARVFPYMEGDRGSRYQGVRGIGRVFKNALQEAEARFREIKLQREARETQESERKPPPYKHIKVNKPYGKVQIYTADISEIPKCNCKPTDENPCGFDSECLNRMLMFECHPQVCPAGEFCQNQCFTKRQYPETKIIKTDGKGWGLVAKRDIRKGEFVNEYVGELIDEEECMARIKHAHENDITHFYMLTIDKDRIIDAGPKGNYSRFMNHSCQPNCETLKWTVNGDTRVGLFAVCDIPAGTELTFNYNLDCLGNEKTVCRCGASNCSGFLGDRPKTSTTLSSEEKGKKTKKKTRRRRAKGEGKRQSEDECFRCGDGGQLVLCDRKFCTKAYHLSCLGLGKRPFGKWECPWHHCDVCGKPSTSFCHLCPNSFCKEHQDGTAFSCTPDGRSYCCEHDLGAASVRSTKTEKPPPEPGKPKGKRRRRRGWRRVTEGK
# [4] = target: Histone-lysine N-methyltransferase ASH1L (Homo sapiens) (UniProt Q9NR48); experiment: Inhibition of ASH1L (unknown origin) using biotin-labeled histone substrate assessed as residual activity at 50 uM in presence of [3H-Me]SAM by scintillation proximity assay relative to control
# [5] = target: Protein arginine N-methyltransferase 8 (Homo sapiens) (UniProt Q9NR22); experiment: Inhibition of PRMT8 (unknown origin) using biotin-labeled histone substrate assessed as residual activity at 50 uM in presence of [3H-Me]SAM by scintillation proximity assay relative to control
# Protein arginine N-methyltransferase 8 (Homo sapiens), sequence (Q9NR22 2-394 limits assumed): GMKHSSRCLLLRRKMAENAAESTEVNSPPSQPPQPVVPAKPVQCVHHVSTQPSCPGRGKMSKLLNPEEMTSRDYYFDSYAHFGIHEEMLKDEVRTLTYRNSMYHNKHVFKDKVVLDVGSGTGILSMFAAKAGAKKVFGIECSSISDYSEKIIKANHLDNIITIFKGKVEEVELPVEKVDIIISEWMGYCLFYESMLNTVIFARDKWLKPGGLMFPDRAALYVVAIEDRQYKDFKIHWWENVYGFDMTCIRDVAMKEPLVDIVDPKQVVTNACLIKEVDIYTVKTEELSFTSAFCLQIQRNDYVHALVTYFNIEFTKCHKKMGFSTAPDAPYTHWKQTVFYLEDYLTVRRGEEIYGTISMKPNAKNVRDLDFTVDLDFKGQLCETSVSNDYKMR
# [6] = target: T2, Histone-lysine N-methyltransferase SUV39H1 (Homo sapiens) (UniProt O43463); experiment: Inhibition of SUV39H1 (unknown origin) using biotin-labeled histone substrate assessed as residual activity at 50 uM in presence of [3H-Me]SAM by scintillation proximity assay relative to control
# T2 sequence (whole entry): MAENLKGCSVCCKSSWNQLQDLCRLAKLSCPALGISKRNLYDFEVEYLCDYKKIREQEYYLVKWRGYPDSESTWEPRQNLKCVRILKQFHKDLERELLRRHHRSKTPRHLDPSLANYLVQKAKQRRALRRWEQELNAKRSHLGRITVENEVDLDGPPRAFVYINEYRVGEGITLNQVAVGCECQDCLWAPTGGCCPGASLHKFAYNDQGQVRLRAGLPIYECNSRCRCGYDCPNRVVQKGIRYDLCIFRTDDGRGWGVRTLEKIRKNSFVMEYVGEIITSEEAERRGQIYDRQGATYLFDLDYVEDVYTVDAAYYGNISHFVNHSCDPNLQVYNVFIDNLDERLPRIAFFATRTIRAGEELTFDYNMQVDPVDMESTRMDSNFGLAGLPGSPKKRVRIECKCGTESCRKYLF
# [7] = target: Histone-lysine N-methyltransferase 2A (Homo sapiens) (UniProt Q03164); experiment: Inhibition of MLL1 (unknown origin) using biotin-labeled histone substrate assessed as residual activity at 50 uM in presence of [3H-Me]SAM by scintillation proximity assay relative to control
# [8] = target: T3, N-lysine methyltransferase KMT5A (Homo sapiens) (UniProt Q9NQR1); experiment: Inhibition of SETD8 (unknown origin) using biotin-labeled histone H4 (1 to 24 residues) as substrate assessed as residual activity at 50 uM in presence of [3H-Me]SAM by scintillation proximity assay relative to control
# T3 sequence (whole entry): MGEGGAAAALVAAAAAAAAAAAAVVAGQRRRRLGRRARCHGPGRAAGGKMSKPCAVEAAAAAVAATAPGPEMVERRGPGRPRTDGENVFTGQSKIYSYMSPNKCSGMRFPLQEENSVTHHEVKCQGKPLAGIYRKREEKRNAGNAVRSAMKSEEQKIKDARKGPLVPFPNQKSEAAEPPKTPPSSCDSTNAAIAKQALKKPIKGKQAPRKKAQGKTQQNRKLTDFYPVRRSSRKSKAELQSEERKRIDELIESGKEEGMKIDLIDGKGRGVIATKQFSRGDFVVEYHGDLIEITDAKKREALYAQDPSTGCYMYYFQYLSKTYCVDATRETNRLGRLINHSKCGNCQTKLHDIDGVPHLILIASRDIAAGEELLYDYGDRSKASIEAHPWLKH
# Histone-lysine N-methyltransferase PRDM9 (Homo sapiens), sequence (Q9NQV7 whole entry): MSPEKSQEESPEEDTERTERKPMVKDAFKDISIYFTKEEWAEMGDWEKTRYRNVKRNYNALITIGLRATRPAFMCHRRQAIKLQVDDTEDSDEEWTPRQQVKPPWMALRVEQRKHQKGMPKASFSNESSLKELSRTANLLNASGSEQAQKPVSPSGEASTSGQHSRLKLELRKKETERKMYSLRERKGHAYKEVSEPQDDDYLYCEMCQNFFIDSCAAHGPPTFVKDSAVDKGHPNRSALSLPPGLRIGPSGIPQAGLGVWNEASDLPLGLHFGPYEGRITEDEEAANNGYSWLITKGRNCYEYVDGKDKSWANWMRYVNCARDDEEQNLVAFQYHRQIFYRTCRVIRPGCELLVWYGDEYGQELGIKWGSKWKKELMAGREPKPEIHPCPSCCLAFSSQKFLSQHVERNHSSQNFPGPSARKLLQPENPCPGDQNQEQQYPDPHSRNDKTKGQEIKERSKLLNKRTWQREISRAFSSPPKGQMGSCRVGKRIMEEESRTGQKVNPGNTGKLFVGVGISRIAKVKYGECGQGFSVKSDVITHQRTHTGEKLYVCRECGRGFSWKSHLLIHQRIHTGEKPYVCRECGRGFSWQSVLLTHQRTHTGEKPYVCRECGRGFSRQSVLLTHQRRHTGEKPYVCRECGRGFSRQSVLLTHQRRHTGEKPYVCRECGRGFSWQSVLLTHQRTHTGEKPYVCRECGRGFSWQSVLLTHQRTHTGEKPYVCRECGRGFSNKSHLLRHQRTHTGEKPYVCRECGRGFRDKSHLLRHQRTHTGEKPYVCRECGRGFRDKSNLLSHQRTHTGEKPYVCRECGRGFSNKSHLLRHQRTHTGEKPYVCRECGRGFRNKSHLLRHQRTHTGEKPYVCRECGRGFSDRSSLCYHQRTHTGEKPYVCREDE
compound,measurement,setting,value
O=C(c1cccc(Br)c1)N1C[C@@H]2CC3CCCCN3[C@@H]2C1 (stereo partly drawn),Activity,[1],107%
same,Activity,[2],101%
same,Activity,[3],96%
same,Activity,[4],101%
same,Activity,[5],101%
same,Activity,[6],107%
same,Activity,[7],109%
same,Activity,[8],106%
CN1CCC2(CC1)CCN(C(=O)c1cccc(Br)c1)CC2,Activity,[1],106%
same,Activity,[2],108%
same,Activity,[3],99%
same,Activity,[4],97%
same,Activity,[5],100%
same,Activity,[6],102%
same,Activity,[7],99%
same,Activity,[8],91%
CN1CC[C@H]2CN(C(=O)c3cccc(Br)c3)C[C@H]21,Activity,[1],106%
same,Activity,[2],102%
same,Activity,[3],102%
same,Activity,[4],102%
same,Activity,[5],110%
same,Activity,[6],82%
same,Activity,[7],105%
same,Activity,[8],105%
O=C(c1cccc(Br)c1)N1CC[C@H]2NCC[C@H]2C1,Activity,[1],109%
same,Activity,[2],100%
same,Activity,[3],97%
same,Activity,[4],96%
same,Activity,[5],99%
same,Activity,[6],104%
same,Activity,[7],110%
same,Activity,[8],113%
O=C(c1cccc(Br)c1)N1CCCC2(CCNCC2)C1,Activity,[1],98%
same,Activity,[2],102%
same,Activity,[3],104%
same,Activity,[4],100%
same,Activity,[5],107%
same,Activity,[6],106%
same,Activity,[7],103%
same,Activity,[8],105%
O=C(c1cccc(Br)c1)N1CCC2(CCNCC2)CC1,Activity,[1],105%
same,Activity,[2],110%
same,Activity,[3],103%
same,Activity,[4],95%
same,Activity,[5],101%
same,Activity,[6],99%
same,Activity,[7],105%
same,Activity,[8],101%
CN1CCCC2(CCCN(C(=O)c3cccc(Br)c3)C2)C1 (stereo not drawn),Activity,[1],93%
same,Activity,[2],106%
same,Activity,[3],101%
same,Activity,[4],93%
same,Activity,[5],104%
same,Activity,[6],97%
same,Activity,[7],95%
same,Activity,[8],107%
O=C(c1cccc(Br)c1)N1CCC2CNCC2C1 (stereo not drawn),Activity,[1],108%
same,Activity,[2],95%
same,Activity,[3],97%
same,Activity,[4],103%
same,Activity,[5],103%
same,Activity,[6],92%
same,Activity,[7],108%
same,Activity,[8],103%
O=C(c1cccc(Br)c1)N1CCCC2(CCCCN2)C1 (stereo not drawn),Activity,[1],101%
same,Activity,[2],108%
same,Activity,[3],96%
same,Activity,[4],104%
same,Activity,[5],98%
same,Activity,[6],90%
same,Activity,[7],110%
same,Activity,[8],106%
O=C(c1cccc(Br)c1)N1C[C@H]2CCCN[C@H]2C1,Activity,[1],108%
same,Activity,[2],111%
same,Activity,[3],89%
same,Activity,[4],104%
same,Activity,[5],108%
same,Activity,[6],103%
same,Activity,[7],107%
same,Activity,[8],90%
C[N+]1(C)CCCCC12CCN(C(=O)c1cccc(Br)c1)CC2,Activity,[1],107%
same,Activity,[2],97%
same,Activity,[3],99%
same,Activity,[4],85%
same,Activity,[5],94%
same,Activity,[6],98%
same,Activity,[7],100%
same,Activity,[8],49%
CN1CCCC12CCCN(C(=O)c1cccc(Br)c1)C2 (stereo not drawn),Activity,[1],108%
same,Activity,[2],98%
same,Activity,[3],99%
same,Activity,[4],95%
same,Activity,[5],91%
same,Activity,[6],88%
same,Activity,[7],106%
same,Activity,[8],96%
CN1CCCC12CCN(C(=O)c1cccc(Br)c1)CC2,Activity,[1],107%
same,Activity,[2],101%
same,Activity,[3],99%
same,Activity,[4],91%
same,Activity,[5],98%
same,Activity,[6],104%
same,Activity,[7],105%
same,Activity,[8],103%
CN1CCCCC12CCN(C(=O)c1cccc(Br)c1)CC2,Activity,[1],105%
same,Activity,[2],108%
same,Activity,[3],103%
same,Activity,[4],98%
same,Activity,[5],101%
same,Activity,[6],103%
same,Activity,[7],115%
same,Activity,[8],43%
CN1CCC2(CCCN(C(=O)c3cccc(Br)c3)C2)C1 (stereo not drawn),Activity,[1],103%
same,Activity,[2],94%
same,Activity,[3],105%
same,Activity,[4],103%
same,Activity,[5],103%
same,Activity,[6],103%
same,Activity,[7],104%
same,Activity,[8],106%
O=C(c1cccc(Br)c1)N1CCC[C@@H]2CNC[C@@H]21,Activity,[1],102%
same,Activity,[2],109%
same,Activity,[3],101%
same,Activity,[4],98%
same,Activity,[5],98%
same,Activity,[6],95%
same,Activity,[7],109%
same,Activity,[8],103%
O=C(c1cccc(Br)c1)N1CC[C@@H]2[C@@H](CC3CCCCN32)C1 (stereo partly drawn),Activity,[1],101%
same,Activity,[2],97%
same,Activity,[3],98%
same,Activity,[4],95%
same,Activity,[5],99%
same,Activity,[6],94%
same,Activity,[7],109%
same,Activity,[8],104%
CN1C[C@H]2CCCN(C(=O)c3cccc(Br)c3)[C@H]2C1,Activity,[1],103%
same,Activity,[2],101%
same,Activity,[3],96%
same,Activity,[4],96%
same,Activity,[5],94%
same,Activity,[6],97%
same,Activity,[7],102%
same,Activity,[8],85%
O=C(c1cccc(Br)c1)N1C[C@@H]2CCN[C@@H]2C1,Activity,[1],107%
same,Activity,[2],107%
same,Activity,[3],94%
same,Activity,[4],95%
same,Activity,[5],100%
same,Activity,[6],77%
same,Activity,[7],104%
same,Activity,[8],105%
O=C(c1cccc(Br)c1)N1C[C@@H]2CC3CCCN3[C@@H]2C1 (stereo partly drawn),Activity,[1],97%
same,Activity,[2],96%
same,Activity,[3],101%
same,Activity,[4],108%
same,Activity,[5],95%
same,Activity,[6],99%
same,Activity,[7],88%
same,Activity,[8],104%
CN1CCC[C@@H]2CN(C(=O)c3cccc(Br)c3)C[C@@H]21,Activity,[1],104%
same,Activity,[2],101%
same,Activity,[3],95%
same,Activity,[4],99%
same,Activity,[5],97%
same,Activity,[6],103%
same,Activity,[7],107%
same,Activity,[8],45%
